In patent publication US12637440B2, “Amide derivative useful as diacylglycerol acyltransferase 2 inhibitor, and use thereof” (LG CHEM, LTD., priority 2019, dated 2026) one finds IC50 data, which are given here for 30 molecules.

The structures appear in SMILES notation. Where only a bound is given, the exact number is not on record here.

As a reminder, the IC50 is the concentration needed to halve the response being measured.

The target of this experiment is T1, Recombinant human DGAT2 protein (Homo sapiens, UniProt Q96PD7).
T1 construct: FLAG (DYKDDDDK); (N); made in house; host or cells: Sf-21 insect cells (BacPAK baculovirus system); used as a membrane preparation
T1 sequence (Q96PD7 1-388): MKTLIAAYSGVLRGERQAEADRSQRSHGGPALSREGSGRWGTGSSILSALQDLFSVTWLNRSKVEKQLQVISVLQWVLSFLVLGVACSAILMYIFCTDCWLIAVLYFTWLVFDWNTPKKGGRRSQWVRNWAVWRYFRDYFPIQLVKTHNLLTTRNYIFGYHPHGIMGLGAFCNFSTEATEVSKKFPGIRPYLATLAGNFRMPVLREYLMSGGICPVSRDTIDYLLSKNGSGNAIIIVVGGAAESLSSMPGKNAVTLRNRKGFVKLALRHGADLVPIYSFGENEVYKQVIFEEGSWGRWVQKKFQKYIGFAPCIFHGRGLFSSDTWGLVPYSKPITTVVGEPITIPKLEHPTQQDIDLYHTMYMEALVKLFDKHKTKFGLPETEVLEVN
The experiment in a line: Measurement of inhibitory effect against DGAT2 enzyme activity (SPA, Phospholipid FlashPlate, [14C]-TG production). It counts as biochemical. The conditions noted are these: concentration inhibiting [14C]-labeled triacyl glycerol (TG) production by 50%; 2 μg DGAT2-membrane protein from Sf-21 cells, 37° C. The essentials:
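Membranes from Sf-21 cells expressing human DGAT2 (2 μg) preincubated 20 min at 37 °C with compound (3 nM–10 μM, 1% DMSO) in HEPES/MgCl2/BSA with 50 μM 1,2-dioleoyl glycerol, then 1 μM [14C]oleoyl-CoA for 15 min. [14C]-TG measured by SPA FlashPlate; inhibition as % of untreated control.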
For the molecule `CCOc1ccccc1O[C@@H]1CCCN(c2cccc(NC(=O)CCc3ccc(C(C)(C)C(=O)O)cc3)n2)C1` [Example 70, (R)-2-(4-(3-((6-(3-(2-ethoxyphenoxy)piperidin-1-yl)pyridin-2-yl)amino)-3-oxopropyl)phenyl)-2-methylpropanoic acid], the IC50 is 350 nM.

Consider `CCOc1ccccc1O[C@@H]1CCCN(c2cccc(NC(=O)Cc3ccc(CC(C)(C)C(=O)O)cc3)n2)C1` [Example 71], for which the IC50 was determined as 250 nM.

On to `CCOc1ccccc1O[C@@H]1CCCN(c2cc(C(F)(F)F)nc(NC(=O)Cc3ccc(CC(C)(C)C(=O)O)cc3)n2)C1` [Example 72], for which the IC50 stood at 1800 nM.

Regarding `CCOc1ccccc1O[C@@H]1CCCN(c2cncc(NC(=O)C(C)(C)c3ccc(CCC(=O)O)cc3)n2)C1` [Example 73, (R)-3-(4-(1-((6-(3-(2-ethoxyphenoxy)piperidin-1-yl)pyrazin-2-yl)amino)-2-methyl-1-oxopropan-2-yl)phenyl)propanoic acid], the IC50 was determined as 310 nM.

As to `C=C(CNc1ccc(CCC(=O)O)cc1)C(=O)Nc1cncc(N2CCC[C@@H](Oc3ccccc3OCC)C2)n1` [Example 74, (R)-3-(4-((2-((6-(3-(2-ethoxyphenoxy)piperidin-1-yl)pyrazin-2-yl)carbamoyl)allyl)amino)phenyl)propanoic acid], the IC50 amounted to 1300 nM.

For the molecule `CCOc1ccccc1O[C@@H]1CCCN(c2cncc(NC(=O)C3CCN(c4ncc(C(=O)O)cn4)CC3)n2)C1` [Example 75, (R)-2-(4-((6-(3-(2-ethoxyphenoxy)piperidin-1-yl)pyrazin-2-yl)carbamoyl)piperidin-1-yl)pyrimidine-5-carboxylic acid], the 50% inhibitory concentration (IC50) turned out to be 1200 nM.

As to `CCOc1cccnc1O[C@@H]1CCCN(c2cncc(NC(=O)[C@@H]3CCCN(c4cccc(CC(C)(C)C(=O)O)c4)C3)n2)C1` [Example 76], the IC50 came out at 130 nM.

Take `CCOc1ccccc1O[C@@H]1CCCN(c2ccnc(NC(=O)C(C)(C)c3ccc(CC(C)(C)C(=O)O)cc3)n2)C1` [Example 77, (R)-3-(4-(1-((4-(3-(2-ethoxyphenoxy)piperidin-1-yl)pyrimidin-2-yl)amino)-2-methyl-1-oxopropan-2-yl)phenyl)-2,2-dimethylpropanoic acid]: the half-inhibitory concentration (IC50) was found to be 410 nM.

On to `CCOc1cccnc1O[C@@H]1CCCN(c2ccnc(NC(=O)C(C)(C)c3ccc(CC(C)(C)C(=O)O)cc3)n2)C1` [Example 78, (R)-3-(4-(1-((4-(3-((3-ethoxypyridin-2-yl)oxy)piperidin-1-yl)pyrimidin-2-yl)amino)-2-methyl-1-oxopropan-2-yl)phenyl)-2,2-dimethylpropanoic acid], for which the IC50 worked out at 2500 nM.

For `CCOc1ccccc1O[C@@H]1CCCN(c2cncc(NC(=O)C3CCN(c4ccc(CC(=O)O)cc4)CC3)n2)C1` [Example 79, (R)-2-(4-(4-((6-(3-(2-ethoxyphenoxy)piperidin-1-yl)pyrazin-2-yl)carbamoyl)piperidin-1-yl)phenyl)acetic acid], the 50% inhibitory concentration (IC50) came to 930 nM.

Regarding `CCOc1ccccc1O[C@@H]1CCCN(c2cncc(NC(=O)C3CCN(c4ccc(C(C)(C)C(=O)O)cn4)CC3)n2)C1` [Example 81, (R)-2-(6-(4-((6-(3-(2-ethoxyphenoxy)piperidin-1-yl)pyrazin-2-yl)carbamoyl)piperidin-1-yl)pyridin-3-yl)-2-methylpropanoic acid], the IC50 was 740 nM.

Regarding `CCOc1ccccc1O[C@@H]1CCCN(c2cncc(NC(=O)C3CCN(c4nnn(CC(=O)O)n4)CC3)n2)C1` [Example 82, (R)-2-(5-(4-((6-(3-(2-ethoxyphenoxy)piperidin-1-yl)pyrazin-2-yl)carbamoyl)piperidin-1-yl)-2H-tetrazol-2-yl)acetic acid], the IC50 amounted to 6800 nM.

With `CCOc1ccccc1O[C@@H]1CCCN(c2cncc(NC(=O)C3CCN(C(=O)CCC(=O)O)CC3)n2)C1` [Example 83, (R)-4-(4-((6-(3-(2-ethoxyphenoxy)piperidin-1-yl)pyrazin-2-yl)carbamoyl)piperidin-1-yl)-4-oxobutanoic acid], the IC50 is over 10000 nM.

As for `CCOc1ccccc1O[C@@H]1CCCN(c2cncc(NC(=O)C3CCN(CC(=O)O)CC3)n2)C1` [Example 84, (R)-2-(4-((6-(3-(2-ethoxyphenoxy)piperidin-1-yl)pyrazin-2-yl)carbamoyl)piperidin-1-yl)acetic acid], the IC50 was over 10000 nM.

For the molecule `CCOc1ccccc1O[C@@H]1CCCN(c2cncc(NC(=O)[C@@H]3CCCN(c4cccc(CC(C)(C)C(=O)O)c4)C3)n2)C1` [Example 85, 3-(3-((R)-3-((6-((R)-3-(2-ethoxyphenoxy)piperidin-1-yl)pyrazin-2-yl)carbamoyl)piperidin-1-yl)phenyl)-2,2-dimethylpropanoic acid], the IC50 is 42 nM.

`CCOc1ccccc1O[C@@H]1CCCN(c2cncc(NC(=O)C(C)(C)c3ccc(N4CCC(C(=O)O)CC4)cc3)n2)C1` [Example 86, (R)-1-(4-(1-((6-(3-(2-ethoxyphenoxy)piperidin-1-yl)pyrazin-2-yl)amino)-2-methyl-1-oxopropan-2-yl)phenyl)piperidine-4-carboxylic acid]: the IC50 was over 10000 nM.

For `CCOc1ccccc1O[C@@H]1CCCN(c2cncc(NC(=O)C3CCN(c4ccc(C(=O)O)cn4)C3)n2)C1` (stereo partly drawn) [Example 87, 6-(3-((6-((R)-3-(2-ethoxyphenoxy)piperidin-1-yl)pyrazin-2-yl)carbamoyl)pyrrolidin-1-yl)nicotinic acid], the IC50 was 160 nM.

Turning to `CCOc1ccccc1O[C@@H]1CCCN(c2cncc(NC(=O)C3(C)CCNC3)n2)C1` (stereo partly drawn) [Example 88, N-(6-((R)-3-(2-ethoxyphenoxy)piperidin-1-yl)pyrazin-2-yl)-3-methylpyrrolidine-3-carboxamide], the IC50 was 6200 nM.

Turning to `CCOc1ccccc1O[C@@H]1CCCN(c2cncc(NC(=O)C3(C)CCN(c4ccc(C(=O)O)cn4)C3)n2)C1` (stereo partly drawn) [Example 89, 6-(3-((6-((R)-3-(2-ethoxyphenoxy)piperidin-1-yl)pyrazin-2-yl)carbamoyl)-3-methylpyrrolidin-1-yl)nicotinic acid], the IC50 turned out to be 590 nM.

As for `CC(C)Oc1ccccc1O[C@@H]1CCCN(c2cncc(NC(=O)Cc3ccc(CC(=O)O)cc3)n2)C1` [Example 90, (R)-2-(4-(2-((6-(3-(2-isopropoxyphenoxy)piperidin-1-yl)pyrazin-2-yl)amino)-2-oxoethyl)phenyl)acetic acid], the IC50 was over 10000 nM.

Turning to `COc1ccccc1O[C@@H]1CCCN(c2cncc(NC(=O)CCc3ccc(C(C)(C)C(=O)O)cc3)n2)C1` [Example 91, (R)-2-(4-(3-((6-(3-(2-methoxyphenoxy)piperidin-1-yl)pyrazin-2-yl)amino)-3-oxopropyl)phenyl)-2-methylpropanoic acid], the IC50 was found to be 370 nM.

`CC(C)(C(=O)O)c1ccc(CCC(=O)Nc2cncc(N3CCC[C@@H](Oc4ccccc4OCCF)C3)n2)cc1` [Example 93, (R)-2-(4-(3-((6-(3-(2-(2-fluoroethoxy)phenoxy)piperidin-1-yl)pyrazin-2-yl)amino)-3-oxopropyl)phenyl)-2-methylpropanoic acid]: the IC50 was found to be 190 nM.

As for `CC(C)(Cc1ccc(CC(=O)Nc2cncc(N3CCC[C@@H](Oc4ccccc4OCCF)C3)n2)cc1)C(=O)O` [Example 94, (R)-3-(4-(2-((6-(3-(2-(2-fluoroethoxy)phenoxy)piperidin-1-yl)pyrazin-2-yl)amino)-2-oxoethyl)phenyl)-2,2-dimethylpropanoic acid], the IC50 turned out to be 110 nM.

For `CC(C)(Cc1ccc(CC(=O)Nc2cncc(N3CCC[C@@H](Oc4ccccc4OC4CC4)C3)n2)cc1)C(=O)O` [Example 95, (R)-3-(4-(2-((6-(3-(2-cyclopropoxyphenoxy)piperidin-1-yl)pyrazin-2-yl)amino)-2-oxoethyl)phenyl)-2,2-dimethylpropanoic acid], the IC50 amounted to 150 nM.

Regarding `CC(C)(Cc1ccc(CC(=O)Nc2cncc(N3CCC[C@@H](Oc4ccccc4OC4CCC4)C3)n2)cc1)C(=O)O` [Example 96, (R)-3-(4-(2-((6-(3-(2-cyclobutoxyphenoxy)piperidin-1-yl)pyrazin-2-yl)amino)-2-oxoethyl)phenyl)-2,2-dimethylpropanoic acid], the half-maximal inhibitory concentration (IC50) worked out at 200 nM.

Consider `CC(C)(C(=O)O)c1ccc(CCC(=O)Nc2cncc(N3CCC[C@@H](Oc4ccccc4OC4CCC4)C3)n2)cc1` [Example 98, (R)-2-(4-(3-((6-(3-(2-cyclobutoxyphenoxy)piperidin-1-yl)pyrazin-2-yl)amino)-3-oxopropyl)phenyl)-2-methylpropanoic acid], for which the IC50 was found to be 81 nM.

In the case of `CCOc1ccccc1O[C@@H]1CCCN(c2cncc(NC(=O)Cc3ccc(OCC(=O)O)cc3)n2)C1` [Example 99], the IC50 was 2900 nM.

Take `CCOc1ccccc1O[C@@H]1CCCN(c2cncc(NC(=O)COc3ccc(CC(=O)O)cc3)n2)C1` [Example 100, (R)-2-(4-(2-((6-(3-(2-ethoxyphenoxy)piperidin-1-yl)pyrazin-2-yl)amino)-2-oxoethoxy)phenyl)acetic acid]: the IC50 was 590 nM.

Turning to `CCOc1ccccc1O[C@@H]1CCCN(c2cncc(NC(=O)COc3ccc(C(C)C(=O)O)cc3)n2)C1` (stereo partly drawn) [Example 101, 2-(4-(2-((6-((R)-3-(2-ethoxyphenoxy)piperidin-1-yl)pyrazin-2-yl)amino)-2-oxoethoxy)phenyl)propanoic acid], the IC50 was determined as 320 nM.

For `CCOc1ccccc1O[C@@H]1CCCN(c2cncc(NC(=O)Cc3ccc(OCC(C)(C)C(=O)O)cc3)n2)C1` [Example 102], the IC50 is 450 nM.
